Test results reported in US6642214B1, “Detoxication of active pharmaceutical substances using cyclodextrine oligomers” (CeramOptec Industries, Inc., priority 1997, dated 2003).

Assays:
[1] = Affinity constants of β-cyclodextrin dimers/trimers for guest compounds (competition with TNS, fluorescence spectroscopy); type: binding
Protocol: Binding constants can be determined in competition with 6-(p-toluidino)-2-naphthalenesulfonic acid (TNS). The measurement is performed by fluorescence spectroscopy according to Ruebner et al. (loc. cit.).
Due to the cyclodextrins being bonded on the secondary side, the cavities of the cyclodextrins are oriented towards each other. The cyclodextrins are preferably β-cyclodextrins. The distance between the cyclodextrin units is determined by selecting the spacer. Depending on the size of the compound to be enclosed, the spacer is selected such that the distance between the at least two cavities approximately matches the distance between two hydro-phobic groups of the pharmaceutically active substance. Preferred spacings are within a range of about 0.6 to 2 nm, more preferably in a range of about 0.8, 1.0, 1.2, 1.4, 1.6 and 1.8 nm.
Such rigid spacers can also be achieved by the use of appropriately functionalized (hetero)aromatics. For example, rigid spacers prevent too high a conformational flexibility, such as twisting of the two cyclodextrins involved in the binding. […] By the use of rigid spacers, affinity constants within a range of greater than 10^6, preferably greater than 10^7 and more preferably greater than 10^8 l/mol are achieved. Thus, rigid spacers are those which achieve correspondingly high stability constants of the complexes together with cyclodextrins involved in the binding and appropriate guest compounds.

[2] = Complex binding constant in competitive reaction with toluidinonaphthalenesulfonic acid; conditions: guest paclitaxel; competition with toluidinonaphthalenesulfonic acid; read-out: complex binding constant Ktaxol
Protocol: 250 mg (100 μmol) of the CD dimer di-β-CD(2N-A4C5A4) (see FIG. 5) was dissolved in 1 l of aqueous buffer (pH 7.35, Hepes 25 mM) at 60° C. and kept at this temperature with vigorous stirring. 8.5 mg of paclitaxel (10 μmol) was dissolved in 1 ml of dimethyl sulfoxide and added dropwise to the mixture with vigorous stirring. The mixture was kept at 60° C. for 24 hours with stirring, followed by cooling and freeze-drying the mixture.

[3] = spacer length 15-16 Å, guests paclitaxel, docetaxel

di-β-CD(—NH—(C8H16)—NH—) [octyl-α,ω-diamide]
Affinity constant, measured/estimated ([1]; spacer length 7-8 Å, guests 3^1,8^1-(di-t-butylphenoxy)-porphyrinoids, (tamoxifene), phenytoin): 10^6-10^7 l/mol

di-β-CD(—NH—(C4H8)—NHCO—(C3H6)—CONH—(C4H8)—NH—) [A4C5A4]
Affinity constant, measured/estimated [1, 3]: 10^7 (dimer)- l/mol | Kd [2]: 1.4 µM

di-β-CD(—NH—(C2H4)—SH-[6-(β,γ)-CD-6]-SH—(C2H4)—NH—)
Affinity constant, measured/estimated [1, 3]: 3 · 10^9 (trimer) l/mol

di-β-CD(—NH—(C2H4)—SH—[6-α-CD-6]—SH—(C2H4)—NH—)
Affinity constant, measured/estimated ([1]; spacer length 13-14 Å, guests vinblastin, vincristin): ˜10^8 l/mol

di-β-CD(—NH—(C3H6)—NHCO—(C3H6)—CONH—(C3H6)—NH—) [A3C5A3]
Affinity constant, measured/estimated ([1]; spacer length 11-12 Å, guests colchicine, colchemide): 10^6-10^7 l/mol
